“Also recorded” adds a separate entry of the source.
Experiments:
MEXF 276L (melanoma) = assay: Propidium iodide monolayer cell proliferation assay, MEXF 276L; format: cell-based, human
Description: Cell proliferation assay: A modified propidium iodide (PI) based monolayer assay was used to assess the anti-cancer activity of the compounds (Dengler WA, Schulte J, Berger DP, Mertelsmann R, Fiebig HH, Anti-Cancer Drugs 1995, 6: 522-532). Briefly, cells were harvested from exponential phase cultures, counted and plated in 96 well flat-bottom microtiter plates at a cell density of 4,000 to 30,000 cells/well dependent on the cell line's growth rate. After a 24 h recovery period, to allow the cells to resume exponential growth, 10 μl of culture medium (4 control wells/cell line/plate) or of culture medium with test compounds were added. PM14 was applied at ten concentrations in half-log increments in duplicates up to 3.16 pM and treatment continued for four days. […] After an incubation period of 1-2 hours at room temperature, fluorescence (FU) was measured using the Enspire Multimode Plate Reader (excitation A=530 nm, emission A=620 nm) to quantify the amount of attached viable cells.
IC50 and IC70 values were calculated by 4 parameter non-linear curve fit using Oncotest Warehouse Software. […]
IC50 values were determined as described in Example 2, but using the following human cancer cell lines: • MEXF 276L (melanoma) • MEXF 462NL (melanoma) • MEXF 1341L (melanoma)

advanced solid tumors = assay: Phase I dose-escalating study, antitumor activity; format: in vivo, human; details: patients, various cancers
Excerpt: Antitumor response will be assessed using the RECIST v.1.1 and/or serum tumor markers as appropriate (see above).
Open-label, dose-escalating, phase I trial of PM14 administered as a 3-hour infusion i.v. every 3 weeks (q3wk) in human patients (pts) with advanced solid tumors, adequate organ function and ECOG PS score of 0-1. Two schedules were explored: Schedule A (Day 1 [D1], Day 8 [D8]) and Schedule B (D1).
Secondary Endpoints • Safety: patients will be evaluable for safety if they have received at least one partial infusion of PM14. AEs will be graded according to the NCI-CTCAE v.4. Additionally, treatment-related discontinuations and treatment compliance (dose reduction, skipped doses and/or treatment delays due to AEs), will be described. • Pharmacokinetics: PK analyses will be evaluated in plasma and urine by standard non-compartmental analysis (compartmental modeling may be performed if appropriate). […] Their mutational status might also be analyzed, if relevant. Their correlation with the clinical response and outcome after treatment will be assessed. • Efficacy: patients will be evaluable for efficacy if they receive at least one complete infusion of PM14 and have at least one clinical or radiological tumor assessment as per RECIST v.1.1 or serum markers, or if they are considered to have failed treatment. […]

For `COc1c(C)cc2c(c1O)[C@@H]1[C@@H]3[C@@H]4SC[C@]5(N[C@H](CO)Cc6c5[nH]c5ccccc65)C(=O)OC[C@@H](c5c6c(c(C)c(OC(C)=O)c54)OCO6)N3[C@@H](O)[C@H](C2)N1C` [PM14, ECUBECTEDIN], which “IC70, μM (geometric mean)” value (MEXF 276L (melanoma)) is on record?
The value was 0.0003 µM.

What about the IC50 (MEXF 276L (melanoma); Homo sapiens, MEXF276L, read-out: IC50, μM (geometric mean)) of the same compound?
The IC50 was 0.0002 µM.

What about the antitumor response (advanced solid tumors) of the same compound?
Its antitumor response is “prolonged tumor stabilizations; also recorded: stable disease (SD)”.

Reference: patent US20240277705A1, “DOSAGE REGIMENS FOR ECUBECTEDIN” (PHARMA MAR S.A., priority 2021, published 2024)
